Measurements taken from PubChem BioAssay (NCI).
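Briefly, cells in 96-well plates were exposed to five compound concentrations for 48 h, and endpoints were estimated by linear interpolation. At the TGI there is no net growth.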

Key:
Assay in all cases: NCI-60 cell line screen, 48 h
[1] = tested on: M19-MEL melanoma
[2] = tested on: HOP-18 NSCLC
[3] = tested on: SN12K1 renal

Compound | TGI [1] [µM] | TGI [2] [µM] | TGI [3] [µM]
CC1CCC2(C(=O)O)CCC3(C)C(=CCC4C5(C)CCC(O)C(C)(C)C5CCC43C)C2C1C (stereo unspecified) | 18.9 | 34.4 | 12.9
CNC(=O)SCC(N)C(=O)O (stereo unspecified) | – | > 100 | > 100
OC1CCOc2ccccc21 (stereo unspecified) | > 100 | > 100 | –
COC1C=COC2(C)Oc3c(C)c(O)c4c(O)c(c(/C=N/N5CCN(N)CC5)c(O)c4c3C2=O)NC(=O)C(C)=CC=CC(C)C(O)C(C)C(O)C(C)C(OC(C)=O)C1C (stereo unspecified) | > 100 | – | –
C/C=C/C1=CC(=O)C(O)C1O (stereo unspecified) | 113 | 27.1 | 84.2
